According to ChEMBL document CHEMBL1154132, “Mycophenolic derivatives from Eupenicillium parvum” (J Nat Prod, 2008):
Activity calls are given as the source filed them. The rule behind the calls is not given here.

Tests used:
Assay type in all cases: functional, organism-based
Escherichia coli = experiment: Antimicrobial activity against Escherichia coli ATCC 35218 by standard disk assay
Pseudomonas aeruginosa = experiment: Antimicrobial activity against Pseudomonas aeruginosa ATCC 27853 by standard disk assay
[1] = tested on: Mycobacterium intracellulare; experiment: Antimicrobial activity against Mycobacterium intracellular […] by alamar blue assay
Staphylococcus aureus = experiment: Antimicrobial activity against methicillin-resistant Staphylococcus aureus ATCC 43300 by standard disk assay
Aspergillus fumigatus = experiment: Antimicrobial activity against Aspergillus fumigatus […] by standard disk assay
Candida albicans = experiment: Antimicrobial activity against Candida albicans ATCC 90028 by standard disk assay
Cryptococcus neoformans = experiment: Antimicrobial activity against Cryptococcus neoformans ATCC 90113 by standard disk assay

| SMILES | Activity (Escherichia coli) | Activity (Pseudomonas aeruginosa) | Activity [1] | Activity (Staphylococcus aureus) | Activity (Aspergillus fumigatus) | IC50 (Candida albicans) [µM] | IC50 (Cryptococcus neoformans) [µM] |
| --- | --- | --- | --- | --- | --- | --- | --- |
| COc1c(C)c2c(c(O)c1C/C=C(\C)[C@@H](O)CC(=O)O)C(=O)OC2 | inactive | inactive | inactive | inactive | inactive |  |  |
| COc1c(C)c2c(c(O)c1C/C=C(\C)CCC(=O)O)C(=O)OC2 [MYCOPHENOLIC ACID] | inactive | inactive | inactive | inactive | inactive | 8 | 15 |
| COC(=O)C[C@H](O)/C(C)=C/Cc1c(OC)c(C)c2c(c1OC)C(=O)OC2 | inactive | inactive | inactive | inactive | inactive |  |  |
| COc1c(C)c2c(c(O)c1CC[C@H](C)C(=O)O)C(=O)OC2 | inactive | inactive | inactive |  | inactive |  |  |
| Cc1c(O)c(CC[C@H](C)C(=O)O)c(O)c2c1COC2=O | inactive | inactive | inactive | inactive | inactive |  |  |
| Cc1c(O)cc(O)c2c1COC2=O | inactive | inactive | inactive | inactive | inactive |  |  |
